Assay results taken from patent US20230372375A1, “SGLT-2 INHIBITOR SARCOSINE CO-CRYSTAL, PREPARATION METHOD THEREFOR AND USE THEREOF” (Beijing Creatron Institute of Pharmaceutical Research Co. …, priority 2020, published 2023).
Values joined by “and” are separate entries in the source; they are usually repeats but may differ in a detail not shown here. Identical values can stand only once. Like-named read-outs stand apart in the source and are kept apart here.

Key:
[1] = Fluidity (angle of repose, bulk density, tap density); conditions: BT-1000 powder comprehensive property tester
[2] = Particle size by laser particle size analyzer; conditions: water as a dispersant
[3] = Comparison of sieving performance; conditions: 30 g, 80 mesh sieve, 1400 rpm, 20 minutes
[4] = Influencing factors test (physical and chemical stability) of dapagliflozin crystal forms, Test Example 1
Experimental: The materials of the two crystal forms were directly exposed for 10 days to conditions of high temperature of 60° C.±2° C., light irradiation of 4500LX±500LX, and high humidity RH75%±5%, to investigate the physical stability and chemical stability of the two crystal forms.

[5] = Influencing factors test (physical and chemical stability) of canagliflozin crystal forms, Test Example 2; type: physicochemical; parameters: Impurity RRT0.73 content / Impurity RRT0.93 content / Impurity RRT1.12 content / Impurity RRT1.17 content / Impurity RRT2.25 content / Impurity RRT2.28 content / Impurity RRT0.57 content / Impurity RRT0.67 content: unit not given here
Experimental: The canagliflozin-sarcosine cocrystal and canagliflozin hemihydrate (original crystal form) were tested for influencing factors.

[6] = RH80%/25° C. 24 h
[7] = physchem; conditions: thermodynamic from solid
[8] = 60° C., directly exposed 10 days
[9] = Light irradiation of 5000 Lx, 10 days
[10] = Directly exposed at 60° C. for 10 days
[11] = Directly exposed at 5000 LX for 10 days
[12] = Directly exposed at RH75% for 10 days
[13] = light irradiation of 5000LX for 10 days
[14] = artificial gastric juice, 25 °C, simulated gastric fluid
[15] = artificial intestinal juice, 25 °C, fassgf or other biorelevant
[16] = citrate buffer of pH 3.0, 25 °C, pH 3, aqueous buffer
[17] = hydrochloric acid of pH 1.0, 25 °C, pH 1, simulated gastric fluid
[18] = phosphate buffer, 25 °C, pH 6.8, aqueous buffer

## CCOc1ccc(Cc2cc([C@@H]3O[C@H](CO)[C@@H](O)[C@H](O)[C@H]3O)ccc2Cl)cc1.C[C@H](O)CO.O
[1]
  Angle of repose (°): 48 °
  Bulk density: 0.35 g/mL
  Tap density: 0.53 g/mL
[2]
  D10 (μm): 2.492 μm
  D50 (μm): 61.55 μm
  D90 (μm): 256.2 μm
[3]
  Average yield (%) after sieving: 86.0%
  Situations after sieving: Almost no large particles but a
[3]; listed as Dapagliflozin (S)-propylene glycol hydrate
  Yield after sieving (%, n = 3), single runs: 85.2, % and 87.7, % and 84.9%
[4]; 0 day
  Impurity 6 (RT 21.65 min, RRT 1.06) content: 0.01
  Impurity 7 (RT 22.01 min, RRT 1.07) content: 0.01
  Impurity 10 (RT 33.01 min, RRT 1.61) content: 0.02
  Impurity 11 (RT 33.72 min, RRT 1.65) content: 0.01
  Impurity 12 (RT 34.69 min, RRT 1.69) content: 0.01
  Impurity 13 (RT 39.10 min, RRT 1.91) content: 0.02
  Number of impurities: 6
  Property (appearance): White
  Total content of impurities (%): 0.07%
[4]; [8]
  Impurity 1 (RT 7.45 min, RRT 0.36) content: 0.02
  Impurity 2 (RT 10.46 min, RRT 0.51) content: 0.14
  Impurity 3 (RT 14.06 min, RRT 0.69) content: 0.01
  Impurity 4 (RT 14.62 min, RRT 0.71) content: 0.21
  Impurity 5 (RT 16.02 min, RRT 0.78) content: 0.01
  Impurity 6 (RT 21.65 min, RRT 1.06) content: 0.01
  Impurity 7 (RT 22.01 min, RRT 1.07) content: 0.01
  Impurity 8 (RT 27.17 min, RRT 1.33) content: 0.02
  Impurity 9 (RT 30.53 min, RRT 1.49) content: 0.02
  Impurity 10 (RT 33.01 min, RRT 1.61) content: 0.02
  Impurity 11 (RT 33.72 min, RRT 1.65) content: 0.01
  Impurity 12 (RT 34.69 min, RRT 1.69) content: 0.01
  Impurity 13 (RT 39.10 min, RRT 1.91) content: 0.02
  Number of impurities: 13
  Property (appearance): Melted
  Total content of impurities (%): 0.50%
[4]; [9]
  Impurity 6 (RT 21.65 min, RRT 1.06) content: 0.01
  Impurity 7 (RT 22.01 min, RRT 1.07) content: 0.01
  Impurity 10 (RT 33.01 min, RRT 1.61) content: 0.02
  Impurity 11 (RT 33.72 min, RRT 1.65) content: 0.01
  Impurity 12 (RT 34.69 min, RRT 1.69) content: 0.01
  Impurity 13 (RT 39.10 min, RRT 1.91) content: 0.02
  Number of impurities: 6
  Total content of impurities (%): 0.08%
[4]; RH75%, 10 days
  Impurity 6 (RT 21.65 min, RRT 1.06) content: 0.01
  Impurity 7 (RT 22.01 min, RRT 1.07) content: 0.01
  Impurity 10 (RT 33.01 min, RRT 1.61) content: 0.02
  Impurity 11 (RT 33.72 min, RRT 1.65) content: 0.01
  Impurity 12 (RT 34.69 min, RRT 1.69) content: 0.01
  Impurity 13 (RT 39.10 min, RRT 1.91) content: 0.02
  Number of impurities: 6
  Total content of impurities (%): 0.08%

## CNCC(=O)O.Cc1ccc([C@@H]2O[C@H](CO)[C@@H](O)[C@H](O)[C@H]2O)cc1Cc1ccc(-c2ccc(F)cc2)s1 [canagliflozin-sarcosine cocrystal]
[5]; 0 day
  Impurity RRT0.57 content: 0.01
  Impurity RRT0.93 content: 0.01
  Impurity RRT2.25 content: 0.01
  Number of impurities: 3
  Property (appearance): White
  Total content of impurities: 0.03%
[5]; [10]
  Impurity RRT0.57 content: 0.01
  Impurity RRT0.93 content: 0.01
  Impurity RRT2.25 content: 0.01
  Number of impurities: 3
  Property (appearance): White
  Total content of impurities: 0.03%
[5]; [11]
  Impurity RRT0.57 content: 0.05
  Impurity RRT0.73 content: 0.01
  Impurity RRT0.93 content: 0.01
  Impurity RRT1.12 content: 0.01
  Impurity RRT2.25 content: 0.01
  Number of impurities: 5
  Property (appearance): White
  Total content of impurities: 0.09%
[5]; [12]
  Impurity RRT0.57 content: 0.01
  Impurity RRT0.93 content: 0.01
  Impurity RRT2.25 content: 0.01
  Number of impurities: 3
  Property (appearance): White
  Total content of impurities: 0.03%
[5]; each influencing factor for 10 days vs 0 day
  Crystal form stability (XRPD): did not change
[5]; high temperature 60° C. and high humidity of RH75% for 10 days vs 0 day
  Number of impurities detected and total content of impurities detected, change: did not show an increasing trend
[5]; high temperature of 60° C. and high humidity of RH75%
  Weight change: basically remained unchanged
[5]; [13]
  Maximum detected amount of new impurities: about 0.05%
  New impurities detected (number): 2
Acetate buffer of pH 4.0, 25° C., 12 h
  Solubility: 32650 µg/mL
Acetate buffer of pH 4.0, 25° C., 24 h
  Solubility: 32660 µg/mL
Artificial gastric juice, 25° C., 12 h
  Solubility: 31160 µg/mL
Artificial gastric juice, 25° C., 24 h
  Solubility: 32080 µg/mL
Artificial intestinal juice, 25° C., 12 h
  Solubility: 30350 µg/mL
Artificial intestinal juice, 25° C., 24 h
  Solubility: 30890 µg/mL
Citrate buffer of pH 3.0, 25° C., 12 h
  Solubility: 33870 µg/mL
Citrate buffer of pH 3.0, 25° C., 24 h
  Solubility: 34230 µg/mL
Hydrochloric acid of pH 1.0, 25° C., 12 h
  Solubility: 34920 µg/mL
Hydrochloric acid of pH 1.0, 25° C., 24 h
  Solubility: 35120 µg/mL
Phosphate buffer of pH 6.8, 25° C., 12 h
  Solubility: 31280 µg/mL
Phosphate buffer of pH 6.8, 25° C., 24 h
  Solubility: 33340 µg/mL
Water, 25° C., 12 h
  Solubility: 35120 µg/mL
Water, 25° C., 24 h
  Solubility: 34560 µg/mL
Summary over media, 25° C.
  Solubility in different pH media: about 30 μg/ml
  Solubility in different pH media (words): almost insoluble

## CCOc1ccc(Cc2cc([C@@H]3O[C@H](CO)[C@@H](O)[C@H](O)[C@H]3O)ccc2Cl)cc1 [dapagliflozin-sarcosine cocrystal]
[1]
  Angle of repose (°): 40 °
  Bulk density: 0.40 g/mL
  Tap density: 0.58 g/mL
[2]
  D10 (μm): 5.151 μm
  D50 (μm): 24.83 μm
  D90 (μm): 89.93 μm
[3]
  Average yield (%) after sieving: 91.8%
  Situations after sieving: Almost no large particles on the
  Yield after sieving (%, n = 3), single runs: 93.6, % and 90.5, % and 91.3%
[4]; 0 day
  Impurity 10 (RT 33.01 min, RRT 1.61) content: 0.03
  Impurity 11 (RT 33.72 min, RRT 1.65) content: 0.01
  Impurity 12 (RT 34.69 min, RRT 1.69) content: 0.03
  Impurity 13 (RT 39.10 min, RRT 1.91) content: 0.01
  Number of impurities: 4
  Property (appearance): White
  Total content of impurities (%): 0.07%
[4]; [8]
  Impurity 10 (RT 33.01 min, RRT 1.61) content: 0.02
  Impurity 11 (RT 33.72 min, RRT 1.65) content: 0.01
  Impurity 12 (RT 34.69 min, RRT 1.69) content: 0.02
  Impurity 13 (RT 39.10 min, RRT 1.91) content: 0.01
  Number of impurities: 4
  Property (appearance): White
  Total content of impurities (%): 0.06%
[4]; [9]
  Impurity 10 (RT 33.01 min, RRT 1.61) content: 0.02
  Impurity 11 (RT 33.72 min, RRT 1.65) content: 0.01
  Impurity 12 (RT 34.69 min, RRT 1.69) content: 0.02
  Impurity 13 (RT 39.10 min, RRT 1.91) content: 0.01
  Number of impurities: 4
  Property (appearance): White
  Total content of impurities (%): 0.05%
[4]; RH75%, 10 days
  Impurity 10 (RT 33.01 min, RRT 1.61) content: 0.02
  Impurity 11 (RT 33.72 min, RRT 1.65) content: 0.01
  Impurity 12 (RT 34.69 min, RRT 1.69) content: 0.02
  Impurity 13 (RT 39.10 min, RRT 1.91) content: 0.01
  Number of impurities: 4
  Property (appearance): White
  Total content of impurities (%): 0.06%
[4]; all the test conditions, 10 days vs 0 day
  Number of impurities detected and total content of impurities detected, change: did not increase
[4]; each influencing factor (60° C., 5000LX, RH75%) for 10 days vs 0 day
  Crystal form stability (XRPD): did not change
[6]
  Hygroscopicity: does not have hygroscopicity
  Percentage of weight gain (%): 0.00%
Water, 25° C., 24 h
  Solubility: 1590 µg/mL
[7]; acetate buffer of pH 4.0, 25 °C, pH 4, aqueous buffer
  solubility at 12 h: 1640 µg/mL
[7]; acetate buffer, 25 °C, pH 4, aqueous buffer
  solubility at 24 h: 1620 µg/mL
[7]; aqueous media of different pH, 25 °C, aqueous buffer
  Solubility: 1400 to 1600 µg/mL
[7]; [14]
  solubility at 12 h: 1560 µg/mL
  solubility at 24 h: 1550 µg/mL
[7]; [15]
  solubility at 12 h: 1400 µg/mL
  solubility at 24 h: 1430 µg/mL
[7]; [16]
  solubility at 12 h: 1620 µg/mL
  solubility at 24 h: 1610 µg/mL
[7]; [17]
  solubility at 12 h: 1600 µg/mL
  solubility at 24 h: 1560 µg/mL
[7]; [18]
  solubility at 12 h: 1580 µg/mL
  solubility at 24 h: 1580 µg/mL
